Molecules are shown by their SMILES. Converted amounts (≈) assume the structure as drawn. The source made the active and inactive calls.

Data set [1] concerns Staphylococcus aureus. Description: Antibacterial activity against Staphylococcus aureus Newman strain assessed as reduction in bacterial growth incubated for 16 to 18 hrs by two fold serial dilution method. The format is functional. To be noted: time 16-18 hrs.
Data set [2] has as its system Staphylococcus aureus. The experiment in a line: Antibacterial activity against multidrug-resistant Staphylococcus aureus NRS1 assessed as reduction in bacterial growth incubated for 16 to 18 hrs by two fold serial dilution method. The format is functional. To be noted: time 16-18 hrs.
The test system of data set [3] is Staphylococcus aureus. Description: Antibacterial activity against multidrug-resistant Staphylococcus aureus NRS70 assessed as reduction in bacterial growth incubated for 16 to 18 hrs by two fold serial dilution method. Format: functional. To be noted: time 16-18 hrs.
Data set [4] has as its system Staphylococcus aureus. The experiment in a line: Antibacterial activity against mutidrug-resistant Staphylococcus aureus NRS100 assessed as reduction in bacterial growth incubated for 16 to 18 hrs by two fold serial dilution method. Format: functional. Particulars: time 16-18 hrs.
The test system of data set [5] is Staphylococcus aureus. The experiment in a line: Antibacterial activity against multidrug-resistant Staphylococcus aureus NRS108 assessed as reduction in bacterial growth incubated for 16 to 18 hrs by two-fold serial dilution method. The format is functional. To be noted: time 16-18 hrs.
Data set [6] deals with Staphylococcus aureus. Description: Antibacterial activity against multidrug-resistant Staphylococcus aureus NRS271 assessed as reduction in bacterial growth incubated for 16 to 18 hrs by two fold serial dilution method. Particulars: time 16-18 hrs. Format: functional.
The subject of data set [7] is Staphylococcus aureus. Description: Bactericidal activity against Staphylococcus aureus Newman strain assessed as reduction in bacterial colonies formation after 24 hrs by crystal violet staining based assay. The format is functional, organism-based.
Data set [8] can be described thus: Cytotoxicity against human HEK293T cells assessed as reduction in cell viability measured after 48 hrs by MTT assay. Format: cell-based, HEK-293T.
The test system of data set [9] is Staphylococcus aureus. The experiment in a line: Antibiofilm activity against Staphylococcus aureus Newman strain assessed as biofilm formation at 0.78 ug/ml after 24 hrs by crystal violet staining based assay relative to control. The format is functional. To be noted: dose 0.78 µg/ml.
In data set [10] the test system is Staphylococcus aureus. Description: Potency index, ratio of vancomycin MIC to test compound MIC for antibacterial activity against multidrug-resistant Staphylococcus aureus NRS1 assessed as reduction in bacterial growth incubated for 16 to 18 hrs by two fold serial dilution method. Format: functional. Particulars: time 16-18 hrs.
For data set [11], the system named is Staphylococcus aureus. The experiment in a line: Potency index, ratio of vancomycin MIC to test compound MIC for antibacterial activity against multidrug-resistant Staphylococcus aureus NRS70 assessed as reduction in bacterial growth incubated for 16 to 18 hrs by two fold serial dilution method. Format: functional. To be noted: time 16-18 hrs.
For data set [12], the system named is Staphylococcus aureus. Description: Potency index, ratio of vancomycin MIC to test compound MIC for antibacterial activity against mutidrug-resistant Staphylococcus aureus NRS100 assessed as reduction in bacterial growth incubated for 16 to 18 hrs by two fold serial dilution method. Format: functional. To be noted: time 16-18 hrs.
For data set [13], the system named is Staphylococcus aureus. The experiment in a line: Potency index, ratio of vancomycin MIC to test compound MIC for antibacterial activity against multidrug-resistant Staphylococcus aureus NRS108 assessed as reduction in bacterial growth incubated for 16 to 18 hrs by two-fold serial dilution method. Format: functional. To be noted: time 16-18 hrs.
For data set [14], the system named is Staphylococcus aureus. Description: Potency index, ratio of vancomycin MIC to test compound MIC for antibacterial activity against multidrug-resistant Staphylococcus aureus NRS271 assessed as reduction in bacterial growth incubated for 16 to 18 hrs by two fold serial dilution method. Format: functional. To be noted: time 16-18 hrs.

In general, MIC refers to the smallest concentration in the dilution series that meets the test's criterion for growth inhibition. As for `COc1cc(CNC(=O)c2cccs2)ccc1OC(=O)c1ccc([N+](=O)[O-])s1`, the MIC in data set [1] is more than 50 µg/mL.

In the case of `CN[C@H](CC(C)C)C(=O)N[C@H]1C(=O)N[C@@H](CC(N)=O)C(=O)N[C@H]2C(=O)N[C@H]3C(=O)N[C@H](C(=O)N[C@H](C(=O)O)c4cc(O)cc(O)c4-c4cc3ccc4O)[C@H](O)c3ccc(c(Cl)c3)Oc3cc2cc(c3O[C@@H]2O[C@H](CO)[C@@H](O)[C@H](O)[C@H]2O[C@H]2C[C@](C)(N)[C@H](O)[C@H](C)O2)Oc2ccc(cc2Cl)[C@H]1O` [VANCOMYCIN], the MIC in data set [1] worked out at 0.78 µg/mL (≈ 0.538 µM); in data set [2] it was 1.56 µg/mL (≈ 1.08 µM); in data set [3], 0.39 µg/mL (≈ 0.269 µM); in [4], 0.78 µg/mL (≈ 0.538 µM); in [5], 0.78 µg/mL (≈ 0.538 µM); in data set [6], 0.78 µg/mL (≈ 0.538 µM). Also, the outcome in data set [7] was inactive.

As to `COc1cc(CNC(=O)c2ccc([N+](=O)[O-])s2)ccc1O`, in [1], the minimum inhibitory concentration (MIC) is more than 50 µg/mL.

In the case of `COc1cc(CNC(=O)c2ccc([N+](=O)[O-])s2)ccc1OC(=O)/C=C/c1ccc([N+](=O)[O-])s1`, the minimal inhibitory concentration (MIC) in [1] was more than 50 µg/mL.

As to `O=C(NCc1ccc(OC(=O)c2ccc([N+](=O)[O-])s2)c(Br)c1)c1ccc([N+](=O)[O-])s1`, the MIC in data set [1] was 6.25 µg/mL (≈ 12.2 µM).

Regarding `COc1cc(CNC(=O)c2ccc([N+](=O)[O-])s2)ccc1OC(=O)c1cccc([N+](=O)[O-])c1`, the minimum inhibitory concentration (MIC) in data set [1] is more than 50 µg/mL.

For `NC[C@H]1O[C@H](O[C@H]2[C@H](O)[C@@H](O[C@H]3O[C@H](CO)[C@@H](O)[C@H](N)[C@H]3O)[C@H](N)C[C@@H]2N)[C@H](O)[C@@H](O)[C@@H]1O` [KANAMYCIN], the MIC in [1] is 3.13 µg/mL (≈ 6.46 µM); in [2], more than 50 µg/mL; in [3] it was more than 50 µg/mL; in data set [4], 1.56 µg/mL (≈ 3.22 µM); in data set [5], more than 50 µg/mL; in data set [6], 3.13 µg/mL (≈ 6.46 µM).

For `COc1cc(CNC(=O)c2cccc([N+](=O)[O-])c2)ccc1OC(=O)c1ccc([N+](=O)[O-])s1`, the MIC in data set [1] is more than 50 µg/mL.

With `COc1cc(CNC(=O)c2ccc([N+](=O)[O-])s2)cc(OC)c1OC(=O)c1ccc([N+](=O)[O-])s1`, in data set [1], the MIC came to 3.13 µg/mL (≈ 6.34 µM).

As a reminder, the CC50 is the concentration that lowers cell viability or growth by half. On to `Cc1cc(CNC(=O)c2ccc([N+](=O)[O-])s2)ccc1OC(=O)c1ccc([N+](=O)[O-])s1`, for which the MIC in data set [1] was found to be 0.39 µg/mL (≈ 0.872 µM); in [2] it was 0.39 µg/mL (≈ 0.872 µM); in data set [3], 0.39 µg/mL (≈ 0.872 µM); in data set [4] it was 0.39 µg/mL (≈ 0.872 µM); in [5], 1.56 µg/mL (≈ 3.49 µM); in data set [6], 0.39 µg/mL (≈ 0.872 µM). In addition, the CC50 at 48 h in data set [8] turned out to be 168 µg/mL (≈ 375 µM).

With `O=C(NCc1ccc(Oc2ccc([N+](=O)[O-])s2)cc1)c1ccc([N+](=O)[O-])s1`, the MIC in data set [1] was determined as 3.13 µg/mL (≈ 7.72 µM).

On to `COc1cc(CNC(=O)c2ccc([N+](=O)[O-])s2)ccc1OC(=O)c1ccc([N+](=O)[O-])s1`, for which the MIC in [1] was determined as 1.56 µg/mL (≈ 3.37 µM); in data set [2] it was 0.78 µg/mL (≈ 1.68 µM); in [3] it was 0.78 µg/mL (≈ 1.68 µM); in data set [4] it was 0.78 µg/mL (≈ 1.68 µM); in data set [5] it was 1.56 µg/mL (≈ 3.37 µM); in [6] it was 0.78 µg/mL (≈ 1.68 µM). In addition, the CC50 at 48 h in [8] was 61 µg/mL (≈ 132 µM).

On to `COc1cc(CNC(=O)CCCC/C=C/C(C)C)ccc1O` [CAPSAICIN], for which the MIC in data set [1] was more than 50 µg/mL.

Take `O=C(NCc1ccc(OC(=O)c2ccc([N+](=O)[O-])s2)c(Cl)c1)c1ccc([N+](=O)[O-])s1`: the MIC in data set [1] stood at 0.78 µg/mL (≈ 1.67 µM); in [2] it was 0.78 µg/mL (≈ 1.67 µM); in [3], 0.39 µg/mL (≈ 0.834 µM); in data set [4] it was 3.13 µg/mL (≈ 6.69 µM); in data set [5], 1.56 µg/mL (≈ 3.33 µM); in [6], 1.56 µg/mL (≈ 3.33 µM).

In the case of `CN(Cc1ccc(N(C)C(=O)c2ccc([N+](=O)[O-])s2)cc1)C(=O)c1ccc([N+](=O)[O-])s1`, the MIC in data set [1] amounted to 6.25 µg/mL (≈ 13.6 µM).

On to `O=C(NCc1ccc(OC(=O)c2ccc([N+](=O)[O-])s2)c(C(F)(F)F)c1)c1ccc([N+](=O)[O-])s1`, for which the MIC in data set [1] is 3.13 µg/mL (≈ 6.24 µM).

As to `O=C(NCc1ccc(NC(=O)c2ccc([N+](=O)[O-])s2)cc1)c1ccc([N+](=O)[O-])s1`, the MIC in [1] is more than 50 µg/mL.

For `O=C(Nc1ccc([N+](=O)[O-])s1)c1ccc(CNC(=O)c2ccc([N+](=O)[O-])s2)cc1`, in data set [1], the MIC was more than 50 µg/mL.

Consider `O=C(NCc1ccc(OC(=O)c2ccc([N+](=O)[O-])s2)cc1)c1ccc([N+](=O)[O-])s1`, for which the MIC in data set [1] is 0.78 µg/mL (≈ 1.8 µM); in data set [2], 0.78 µg/mL (≈ 1.8 µM); in [3], 0.78 µg/mL (≈ 1.8 µM); in data set [4] it was 3.13 µg/mL (≈ 7.22 µM); in [5], 3.13 µg/mL (≈ 7.22 µM); in data set [6] it was 1.56 µg/mL (≈ 3.6 µM). For the same compound, in data set [8], the CC50 at 48 h was determined as 251 µg/mL (≈ 579 µM).

Take `COc1cc(CNC(=O)c2ccc([N+](=O)[O-])s2)ccc1OC(=O)c1ccc([N+](=O)[O-])o1`: the MIC in data set [1] amounted to 6.25 µg/mL (≈ 14 µM).

As for `COc1cc(CNC(=O)c2ncc([N+](=O)[O-])n2C)ccc1OC(=O)c1ccc([N+](=O)[O-])s1`, the MIC in data set [1] is more than 50 µg/mL.

Turning to `COc1cc(CNC(=O)c2ccc([N+](=O)[O-])o2)ccc1OC(=O)c1ccc([N+](=O)[O-])s1`, the MIC in [1] was found to be 3.13 µg/mL (≈ 7 µM).

As to `COc1cc(CNC(=O)/C=C/c2ccc([N+](=O)[O-])s2)ccc1OC(=O)c1ccc([N+](=O)[O-])s1`, the MIC in data set [1] was more than 50 µg/mL.

Regarding `CCCCCCCCCC(=O)NCc1ccc(OC(=O)c2ccc([N+](=O)[O-])s2)c(OC)c1`, the MIC in data set [1] was more than 50 µg/mL.

Consider `O=C(NCc1ccc(OC(=O)c2ccc([N+](=O)[O-])s2)c(F)c1)c1ccc([N+](=O)[O-])s1`, for which the MIC in [1] came to 3.13 µg/mL (≈ 6.93 µM).

With `COc1cc(OC(=O)c2ccc([N+](=O)[O-])s2)ccc1CNC(=O)c1ccc([N+](=O)[O-])s1`, the MIC in [1] is 1.56 µg/mL (≈ 3.37 µM); in data set [2], 0.78 µg/mL (≈ 1.68 µM); in [3] it was 0.78 µg/mL (≈ 1.68 µM); in data set [4] it was 0.78 µg/mL (≈ 1.68 µM); in [5], 1.56 µg/mL (≈ 3.37 µM); in [6] it was 0.78 µg/mL (≈ 1.68 µM).

For the compound `O=C(NCc1ccc(-c2noc(-c3ccc([N+](=O)[O-])s3)n2)cc1)c1ccc([N+](=O)[O-])s1`, the MIC was found to be 0.78 µg/mL (≈ 1.71 µM) in data set [1]; 0.39 µg/mL (≈ 0.853 µM) in [2]; 0.2 µg/mL (≈ 0.437 µM) in data set [3]; 0.39 µg/mL (≈ 0.853 µM) in [4]; 0.2 µg/mL (≈ 0.437 µM) in [5]; 0.2 µg/mL (≈ 0.437 µM) in data set [6]. Further, the CC50 at 48 h in data set [8] was 126 µg/mL (≈ 276 µM). Further, the Activity in data set [9] came out at 80%. For the same compound, in [7], the outcome was Active. The Ratio in [10], in data set [11], in data set [12], in data set [13] and in data set [14] was 2 in each case.

For the compound `COc1cc(CNC(=O)c2ccc([N+](=O)[O-])o2)ccc1OC(=O)c1ccc([N+](=O)[O-])o1`, the MIC in [1] was determined as 3.13 µg/mL (≈ 7.26 µM).

In the case of `COc1cc(CNC(=O)c2ccc([N+](=O)[O-])s2)ccc1OC(=O)c1ncc([N+](=O)[O-])n1C`, the MIC in [1] was more than 50 µg/mL.

For the compound `COc1cc(CNC(=O)c2ccc([N+](=O)[O-])s2)ccc1OC(=O)c1cccs1`, in data set [1], the minimal inhibitory concentration (MIC) is more than 50 µg/mL.

Turning to `O=C(NCc1ccc(OC(=O)c2ccc([N+](=O)[O-])s2)c([N+](=O)[O-])c1)c1ccc([N+](=O)[O-])s1`, the MIC in data set [1] came to 6.25 µg/mL (≈ 13.1 µM).

(Values after ChEMBL document CHEMBL4765312, “Capsaicin derivatives with nitrothiophene substituents: Design, synthesis and antibacterial activity against multidrug-resistant S. aureus” (Eur J Med Chem, 2020).)
